# Experimental data reported in patent US10960002B2, “Volatile metabolite profiles for the diagnosis and treatment of Mucorales fungi” (The Brigham and Women's Hospital, Inc., priority 2016, dated 2021).
# Test system: Rhizopus microsporus
# Assay: Sequential GC-MS analysis of breath samples from a patient with proven Rhizopus microsporus infection during antifungal therapy
# Type: in vivo, human
# Conditions: one patient with proven Rhizopus microsporus infection; from day 0 (start of therapy) over the 28-day treatment course
smiles,measurement,value
C[C@@H](c1nc(-c2ccc(C#N)cc2)cs1)[C@](O)(Cn1cncn1)c1cc(F)ccc1F [isavuconazole],"breath levels of three sesquiterpene metabolites (1H-Indene, 2,3,3a,4-tetrahydro-3,3a,6-trimethyl-1-(1-methylethyl)-; cedrene; cedranoxide, 8,14-)",gradual attenuation and disappearance
